Assay results: patent publication US10799478B2, “Treatment of androgen deprivation therapy associated symptoms” (priority 2014, dated 2020)

Target: T1, human Androgen receptor (Homo sapiens, UniProt P10275)
T1 sequence (P10275 1-920): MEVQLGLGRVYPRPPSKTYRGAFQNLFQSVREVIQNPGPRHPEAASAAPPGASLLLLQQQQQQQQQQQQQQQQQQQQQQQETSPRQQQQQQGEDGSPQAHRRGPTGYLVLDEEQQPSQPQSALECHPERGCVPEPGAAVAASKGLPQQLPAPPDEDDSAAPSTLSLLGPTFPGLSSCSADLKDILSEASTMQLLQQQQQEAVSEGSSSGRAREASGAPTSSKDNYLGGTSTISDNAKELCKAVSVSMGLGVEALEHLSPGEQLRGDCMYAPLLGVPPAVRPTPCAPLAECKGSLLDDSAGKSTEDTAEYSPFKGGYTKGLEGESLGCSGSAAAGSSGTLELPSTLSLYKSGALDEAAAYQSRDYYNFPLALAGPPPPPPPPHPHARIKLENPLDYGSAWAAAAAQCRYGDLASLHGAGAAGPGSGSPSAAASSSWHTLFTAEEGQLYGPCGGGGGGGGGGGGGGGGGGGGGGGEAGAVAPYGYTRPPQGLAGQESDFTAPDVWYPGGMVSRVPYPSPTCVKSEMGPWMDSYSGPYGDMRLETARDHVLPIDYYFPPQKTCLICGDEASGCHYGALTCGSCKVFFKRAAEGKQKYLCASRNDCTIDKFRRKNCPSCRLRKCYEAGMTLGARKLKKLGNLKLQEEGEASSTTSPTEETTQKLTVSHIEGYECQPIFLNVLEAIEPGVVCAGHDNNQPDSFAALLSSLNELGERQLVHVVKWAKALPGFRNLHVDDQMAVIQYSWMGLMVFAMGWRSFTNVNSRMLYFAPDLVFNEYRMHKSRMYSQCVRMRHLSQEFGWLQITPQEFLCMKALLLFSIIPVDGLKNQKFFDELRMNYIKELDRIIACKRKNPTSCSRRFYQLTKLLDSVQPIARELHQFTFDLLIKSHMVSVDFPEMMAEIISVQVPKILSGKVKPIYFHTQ
Test: hAR binding affinity (Ki)
Settings: comparison with R1881

For `CC(C)OC(=O)N[C@H]1Cc2c(n(Cc3ccccn3)c3ccc(C#N)cc23)C1` (single isomer, unassigned) [Example 1], which “biochemical binding affinity to the human Androgen receptor” value is on record?
The value was “only modestly reduced”.
